Reference: patent US20250325491A1, “POLYVALENT MOLECULE BASED LIPID NANOPARTICLES FOR NUCLEIC ACID DELIVERY” (Bio-TRIP B.V., priority 2022, published 2025)

Key:
[1] = system: RAW 264.7 cell line; experiment: MTS cytotoxicity assay; format: cell-based; conditions: RAW 264.7 cell line exposed to siRNA-aNPs with increasing amounts of the polyvalent molecule (FIG. 10)
Protocol: MTS assays were carried out on multiple apolipoprotein nanoparticles (aNPs) of the invention. These assays were executed in line with protocols that are known in the art.

[2] = system: Firefly luciferase in RAW264.7 cell line transfected with the pmirGLO plasmid; experiment: In vitro silencing (dose-response curve); conditions: RAW 264.7 cell line; siRNA-aNPs containing the polyvalent molecule vs DLin-MC3-DMA or ALC-0315 particles (FIG. 11)
Protocol: The in vitro silencing experiments were performed in a RAW264.7 cell line transfected with the pmirGLO plasmid (containing Renilla luciferase and Firefly luciferase expressing gene sequences). The cells were cultured until 80% confluency in a T75 cell culture flask. The cells were detached, counted, and seeded at 10000 cells/well in a 96-well plate. After overnight resting, the cells were transfected with nanoparticles containing anti Firefly luciferase siRNA at a range of concentrations. After 48-hour incubation, the old medium was washed off with 1×PBS. Lysate phosphate buffer (Dual-Luciferase® Reporter Assay System, Promega) was added to lyse the cells. […] Subsequently, 40 μl of ONE-Glo™ reagent (Dual-Luciferase® Reporter Assay System, Promega) was added and luminescence was measured with a Tecan Spark® microplate reader at an integration time of 500 ms, and settle time of 1000 ms. Since the luminescence peak should be in the range of 550-570 nm, a luminescence scan was performed to confirm the wavelength. Next, 40 μl of Stop and Glo reagent (Dual-Luciferase® Reporter Assay System, Promega) was added to each well and the luminescence was measured again in the same way. The relative remaining Firefly luciferase luminescence was calculated. First, the Firefly luminescence was normalized with the Renilla luminescence. […]

[3] = system: C57BL/6 mice; experiment: In vivo Firefly luciferase expression; conditions: 0.5 mg/kg Firefly luciferase mRNA in aNP, bolus injection, 16 hours, two animals (FIG. 16)
Protocol: After 16 hours, the animals were sacrificed and the liver, spleen and femur collected. Organs were processed to yield single cell suspensions. 1/10th of the liver was cut into small pieces, incubated for 15 min, 37° C., 50 RPM with 5 mL liberase solution. Next, the digested liver was put through a 70 μm strainer and collected in a 50 mL falcon tube. After washing with 1×PBS, the cells was resuspended in 15 mL 1×PBS. 1/10th of the spleen was cut into small pieces and put through a 70 μm strainer and collected in a 50 mL falcon tube. After washing with 1×PBS, 1 mL of lysis buffer (BD Pharm Lyse™, cat #555899, diluted 10 times in diH2O) was added and incubated for 4 minute at room temperature. The cells were washed with 1×PBS and resuspended in 15 mL 1×PBS. Both ends of the femur were broken. The bone marrow cells were flushed from the inside of the bone with 10 mL 1×PBS through a 70 μm strainer and collected in a 50 mL falcon tube. The cells were centrifugated and 1 mL lysis buffer (BD Pharm Lyse™, cat #555899, diluted 10 times in diH2O) was added to the pellet and incubated for 1 minute at room temperature. […] All cell suspensions were counted and 500000 cells were seeded in a V-bottom plate. […] 40 μL was transferred to a white 96-well plate and luminescence was measured using the following settings: Settle time: 1000 ms; Integration time: 500 ms; Open filter.

[4] = siRNA retention by Quant-iT RiboGreen assay; format: physicochemical; conditions: A2 siRNA-aNPs with variations in N/P, tri-caprylin content, cholesterol content and type of phospholipid (FIG. 13); in most cases
Protocol: (§1) The Quant-iT RiboGreen assay (Thermo Fisher) was used to quantify the amount of siRNA loaded inside the formulated particles. The assay was performed using a black 96-well plate. The formulation sample with a theoretical siRNA concentration of 133.3 μg/mL, was diluted 200 times in TE buffer (10 mM Tris-HCl, 1 mM, EDTA, pH 7.5 in DEPC-treated water) and with a TE buffer containing 2% Triton™ X-100, in a black 96-well plate to a total volume of 100 μl. The Triton detergent will disrupt the lipid-based nanoparticles; therefore, all siRNA (retained plus unretained) becomes accessible for the Quant-iT RiboGreen reagent. Controls of siRNA of known concentration (28.6 μg/mL) were diluted 53.3 times in both TE buffer and TE buffer containing 2% Triton in a 96-well plate to a total volume of 100 μl. Next, RiboGreen reagent was diluted 200 times with TE buffer and with TE buffer containing Triton. 100 μl of this dilution was added to each well containing sample or control to bring the total volume in the plate to 200 μl. Subsequently, the samples' fluorescence was measured on a Tecan Spark® microplate reader at an excitation wavelength of 480 nm and emission wavelength of 520 nm.
The recovery of siRNA was determined as:
The siRNA retention=recovery×entrapment.

[5] = mRNA recovery, entrapment and retention by Ribogreen assay; format: physicochemical; conditions: mRNA-aNPs containing the polyvalent material; for Retention of mRNA: retention = recovery x entrapment
Protocol: as §1
This was done in a similar way as described for determining the siRNA encapsulation efficiency.

[6] = Dynamic light scattering (DLS) of nanoparticles; format: physicochemical
Protocol: The hydrodynamic diameter of the formulated particles was determined by a number-weighted mean diameter provided by dynamic light scattering (DLS) using a Zetasizer Nano ZS in combination with a Malvern Zetasizer NanoSampler (Malvern Instruments, Worcestshire, UK). The size dispersity was measured as the poly dispersity index (PDI). For the DLS measurements, 100 μl of the formulated nanoparticle was diluted into 700 μl of PBS (137 mM NaCl, 2.7 mM KCl, 10 mM Na2HPO4 and 1.8 mM KH2PO4) and equilibrated at room temperature before the analysis. Each sample was measured 5 times, 10 runs of each 10 seconds, at wavelength 633 nm, without fixing the attenuator and measurement position.

[7] = formulation for in vitro experiment (Table S8)
[8] = formulation for in vivo experiment (Table S8)
[9] = mRNA-aNPs containing the polyvalent material, in vitro experiment formulation
[10] = mRNA-aNPs containing the polyvalent material, in vivo experiment formulation
[11] = siRNA-aNPs containing A2, N/P = 6, High Cholesterol (3.37 mg)
[12] = siRNA-aNPs containing A2, N/P = 6, Low Cholesterol (0.54 mg)
[13] = siRNA-aNPs containing A2, N/P = 6, Low Triglyceride (5 mg)
[14] = siRNA-aNPs containing A2, N/P = 6, No Triglyceride
[15] = siRNA-aNPs containing A2, N/P = 6, phospholipid DMPC
[16] = siRNA-aNPs containing A2, N/P = 6, phospholipid DPPC
[17] = siRNA-aNPs containing A2, N/P = 6, phospholipid DSPC
[18] = siRNA-aNPs containing A2, N/P = 6, phospholipid POPC
[19] = siRNA-aNPs containing A2, composition as Table S3 except N/P = 3
[20] = siRNA-aNPs containing A2, composition as Table S3 except N/P = 9
[21] = siRNA-aNPs containing the polyvalent material (Table S3), SD over individual repeats

In the case of `CCCCCCCCOC(=O)CCN(CCCN(CCCCN(CCCN(CCC(=O)OCCCCCCCC)CCC(=O)OCCCCCCCC)CCCN(CCC(=O)OCCCCCCCC)CCC(=O)OCCCCCCCC)CCCN(CCC(=O)OCCCCCCCC)CCC(=O)OCCCCCCCC)CCC(=O)OCCCCCCCC` [Example A2, G1-ACR-nC8-8], the “cytotoxicity (MTS assay)” value [1] is reported as “do not exercise cytotoxicity”, the “silencing potency compared with reference aNPs or LNPs (dose response curve)” value [2] is reported as “higher potency than the reference aNPs or LNPs” and the “Luminescence intensity of single cell suspensions from liver, spleen and bone marrow (tissue targeting)” value [3] is reported as “target spleen and bone marrow tissue efficiently”. The “siRNA retention (Ribogreen assay)” value [4] was “high siRNA retention”, the “Entrapment of mRNA” value [5, 7] was 87% and the “Recovery of mRNA” value [5, 7] was 27%. For the same compound, the “Retention of mRNA” value [5, 7] was 23%, the “Entrapment of mRNA” value [5, 8] was 88% and the “Recovery of mRNA” value [5, 8] was 57%. For the same compound, the “Retention of mRNA” value [5, 8] was 50%, the “DLS Hydrodynamic diameter (number mean)” value [6, 9] was 53 nm and the “DLS PDI” value [6, 9] was 0.27. The “DLS Hydrodynamic diameter (number mean)” value [6, 10] was 63 nm, the “DLS PDI” value [6, 10] was 0.08 and the “DLS Hydrodynamic diameter” value [6, 11] was 103 nm. For the same compound, the “DLS PDI” value [6, 11] was 0.24, the “DLS Hydrodynamic diameter” value [6, 12] was 95 nm and the “DLS PDI” value [6, 12] was 0.07. For the same compound, the “DLS Hydrodynamic diameter” value [6, 13] was 60 nm, the “DLS PDI” value [6, 13] was 0.08 and the “DLS Hydrodynamic diameter” value [6, 14] was 122 nm. For the same compound, the “DLS PDI” value [6, 14] was 0.16, the “DLS Hydrodynamic diameter” value [6, 15] was 91 nm and the “DLS PDI” value [6, 15] was 0.18. The “DLS Hydrodynamic diameter” value [6, 16] was 61 nm, the “DLS PDI” value [6, 16] was 0.08 and the “DLS Hydrodynamic diameter” value [6, 17] was 60 nm. The “DLS PDI” value [6, 17] was 0.07, the “DLS Hydrodynamic diameter” value [6, 18] was 123 nm and the “DLS PDI” value [6, 18] was 0.08. For the same compound, the “DLS Hydrodynamic diameter” value [6, 19] was 173 nm, the “DLS PDI” value [6, 19] was 0.79 and the “DLS Hydrodynamic diameter” value [6, 20] was 62 nm. The “DLS PDI” value [6, 20] was 0.24, the “nanoparticle diameter, all composition variations of Table S7” value ([6]; siRNA-aNPs containing A2, in all cases) was “with diameters smaller than 200 nm are formed” and the “DLS Hydrodynamic diameter (number mean)” value [6, 21] was 57 ± 6 nm. For the same compound, the “DLS PDI” value [6, 21] was 0.16 ± 0.03.
